According to patent publication US20120202856A1, “SUBSTITUTED BENZIMDAZOLE DERIVATIVES USEFUL AS TRPM8 RECEPTOR MODULATORS” (priority 2011, published 2012):
Structures can show the parent of a compound that is named as a salt.

Biological target: T1, canine TRPM8 (Canis lupus familiaris, UniProt Q1A7N1)
T1 construct: expressed in transfected cells
Assay: In Vitro Canine TRPM8 Functional Assay (intracellular Ca2+ fluorescence, icilin activation, HEK293 cells)
Type: cell-based
Settings: for inhibition at 0.2 µM: HEK293, 0.2 μM test compound, individually measured values, read-out: % Inh (%) @0.2 μM, in vitro TRP M8 Activity; for IC50: HEK293 cells expressing canine TRPM8, icilin activation, individually measured values (batches/salt forms), read-out: IC50 (nM), in vitro TRP M8 Activity
Method in brief: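 HEK293 cells expressing canine TRPM8 loaded with Calcium 3 dye, then stimulated with icilin; intracellular Ca2+ rise read on FLIPR or FDSS. Peak fluorescence minus basal normalized to percent maximal response; IC50 from sigmoidal nonlinear regression of quadruplicate wells.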

T1 sequence (Q1A7N1 1-1104): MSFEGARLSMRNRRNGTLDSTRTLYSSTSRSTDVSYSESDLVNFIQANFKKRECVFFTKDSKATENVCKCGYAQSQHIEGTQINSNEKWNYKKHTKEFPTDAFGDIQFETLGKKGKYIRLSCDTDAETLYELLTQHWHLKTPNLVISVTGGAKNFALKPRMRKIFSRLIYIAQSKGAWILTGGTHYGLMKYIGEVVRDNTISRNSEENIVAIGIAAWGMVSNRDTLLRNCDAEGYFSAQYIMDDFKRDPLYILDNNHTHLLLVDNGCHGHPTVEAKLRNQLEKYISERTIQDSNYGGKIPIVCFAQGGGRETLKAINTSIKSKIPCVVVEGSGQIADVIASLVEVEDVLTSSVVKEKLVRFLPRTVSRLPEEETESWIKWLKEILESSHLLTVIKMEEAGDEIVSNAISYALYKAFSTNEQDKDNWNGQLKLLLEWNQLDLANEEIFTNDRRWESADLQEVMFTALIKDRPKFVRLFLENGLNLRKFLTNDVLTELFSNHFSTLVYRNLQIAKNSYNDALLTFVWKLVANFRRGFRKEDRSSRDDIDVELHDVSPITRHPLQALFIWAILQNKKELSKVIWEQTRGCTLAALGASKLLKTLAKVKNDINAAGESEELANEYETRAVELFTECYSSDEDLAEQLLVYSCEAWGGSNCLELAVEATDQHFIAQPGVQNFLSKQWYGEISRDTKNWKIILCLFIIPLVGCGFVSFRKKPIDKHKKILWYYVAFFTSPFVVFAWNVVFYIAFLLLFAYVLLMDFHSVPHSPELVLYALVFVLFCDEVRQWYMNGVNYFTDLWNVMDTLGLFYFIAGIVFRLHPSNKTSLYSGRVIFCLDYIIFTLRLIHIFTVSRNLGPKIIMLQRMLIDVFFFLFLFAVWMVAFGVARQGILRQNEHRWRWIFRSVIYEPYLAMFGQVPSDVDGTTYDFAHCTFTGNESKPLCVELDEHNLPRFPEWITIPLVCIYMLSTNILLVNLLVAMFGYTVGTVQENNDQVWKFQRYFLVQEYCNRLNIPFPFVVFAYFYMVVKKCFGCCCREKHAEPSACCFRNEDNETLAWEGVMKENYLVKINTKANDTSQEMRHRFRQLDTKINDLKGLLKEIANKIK

Structure (SMILES)	inhibition at 0.2 µM [%]	IC50 [nM]
Cc1nc(C(C)(C)C)oc1-c1nc2cc(-c3ccccc3F)cc(C(F)(F)F)c2[nH]1 [Compound 175, 2-(2-tert-Butyl-4-methyl-oxazol-5-yl)-5-(2-fluoro-phenyl)-7-trifluoromethyl-1H-benzimidazole hydrochloride]	48	–
Cc1nc(C(C)(C)C)oc1-c1nc2cc(-c3ccccc3OC(F)(F)F)cc(C(F)(F)F)c2[nH]1 [Compound 176, 2-(2-tert-Butyl-4-methyl-oxazol-5-yl)-5-(2-trifluoromethoxy-phenyl)-7-trifluoromethyl-1H-benzimidazole hydrochloride]	60	–
Cc1nc(C(C)(C)C)oc1-c1nc2cc(-c3ccccc3C(F)(F)F)cc(C(F)(F)F)c2[nH]1 [Compound 177, 2-(2-tert-Butyl-4-methyl-oxazol-5-yl)-7-trifluoromethyl-5-(2-trifluoromethyl-phenyl)-1H-benzimidazole hydrochloride]	11	–
Cc1nc(C(C)(C)C)oc1-c1nc2cc(-c3ccccc3)cc(C(F)(F)F)c2[nH]1 [Compound 178, 2-(2-tert-Butyl-4-methyl-oxazol-5-yl)-5-phenyl-7-trifluoromethyl-1H-benzimidazole hydrochloride]	17	–
Cc1nc(C(C)(C)C)oc1-c1nc2cc(-c3ccccc3Cl)cc(C(F)(F)F)c2[nH]1 [Compound 179, 2-(2-tert-Butyl-4-methyl-oxazol-5-yl)-5-(2-chloro-phenyl)-7-trifluoromethyl-1H-benzimidazole hydrochloride]	18	–
Cc1nc(C(C)(C)C)oc1-c1nc2cc(-c3ccccc3)cc(Cl)c2[nH]1 [Compound 180, 2-(2-tert-Butyl-4-methyl-oxazol-5-yl)-7-chloro-5-phenyl-1H-benzimidazole hydrochloride]	6	–

The next lines start with the values.

inhibition at 0.2 µM [%]	IC50 [nM]	Structure (SMILES)
15	–	Cc1nc(C(C)(C)C)oc1-c1nc2cc(-c3ccccc3Cl)cc(Cl)c2[nH]1 [Compound 181, 2-(2-tert-Butyl-4-methyl-oxazol-5-yl)-7-chloro-5-(2-chloro-phenyl)-1H-benzimidazole hydrochloride]
26	–	Cc1nc(C(C)(C)C)oc1-c1nc2cc(-c3ccccc3F)cc(Cl)c2[nH]1 [Compound 182, 2-(2-tert-Butyl-4-methyl-oxazol-5-yl)-7-chloro-5-(2-fluoro-phenyl)-1H-benzimidazole hydrochloride]
4	–	Cc1nc(C(C)(C)C)oc1-c1nc2cc(-c3ccccc3OC(F)(F)F)cc(Cl)c2[nH]1 [Compound 183, 2-(2-tert-Butyl-4-methyl-oxazol-5-yl)-7-chloro-5-(2-trifluoromethoxy-phenyl)-1H-benzimidazole hydrochloride]
101	6.4	Cc1oc(C(C)(C)C)c(C#N)c1-c1nc2cc(-c3ccccc3C(F)(F)F)cc(C(F)(F)F)c2[nH]1 [Compound 184, 2-tert-Butyl-5-methyl-4-[7-trifluoromethyl-5-(2-trifluoromethyl-phenyl)-1H-benzimidazol-2-yl]-furan-3-carbonitrile sodium salt]
99	13.8	Cn1nc(C(C)(C)C)c(C(F)(F)F)c1-c1nc2cc(-c3ccccc3F)cc(C(F)(F)F)c2[nH]1 [Compound 185, 2-(5-tert-Butyl-2-methyl-4-trifluoromethyl-2H-pyrazol-3-yl)-5-(2-fluoro-phenyl)-7-trifluoromethyl-1H-benzimidazole sodium salt]
99	20	Cn1nc(C(C)(C)C)c(C(F)(F)F)c1-c1nc2cc(-c3ccccc3Cl)cc(C(F)(F)F)c2[nH]1 [Compound 186, 2-(5-tert-Butyl-2-methyl-4-trifluoromethyl-2H-pyrazol-3-yl)-5-(2-chloro-phenyl)-7-trifluoromethyl-1H-benzimidazole sodium salt]
